Molecular target: Ceramide glucosyltransferase (Canis familiaris)
Assay: Inhibitory concentration against glucosylceramide synthase in MDCK cell line

SMILES: CCCCCCCCCCCCCCCC(=O)NC(CN1CCCC1)C(O)c1ccc2c(c1)OCCO2 (configuration not stated) [Hexadecanoic acid [2-(2,3-dihydro-benzo[1,4]dioxin-6-yl)-2-hydroxy-1-pyrrolidin-1-ylmethyl-ethyl]-amide]
- IC50: 90 nM

SMILES: CCCCCCCCCCCCCCCC(=O)NC(CN1CCCC1)C(O)c1ccc(O)cc1 (configuration not stated) [Hexadecanoic acid [2-hydroxy-2-(4-hydroxy-phenyl)-1-pyrrolidin-1-ylmethyl-ethyl]-amide]
- IC50: 90 nM
